According to the supplement of paper PMC7108870:

Experiments:
HEK293sieSTAT3(wt) [1] = test: drug sensitivity score (DSS), viability CellTiter-Glo (DSS (dimensionless)); higher = more growth inhibition; extreme values may be limits of the assay; conditions: 72 h; STAT3 variant: wild type
How it was run: (§1)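 HEK293 cells with a STAT3-dependent luciferase reporter, overexpressing either wild-type or mutant STAT3, were dispensed (20 μl at 100,000 cells/ml) into 384-well plates holding compounds acoustically pre-plated at 5 concentrations in 10-fold dilutions. The plates were kept for 72 hours at 37°C and 5% CO2, then CellTox Green fluorescence (485/520 nm) followed by CellTiter-Glo luminescence was read on a PHERAstar FS. Breeze was used to compute a drug sensitivity score from the dose-response curve area after normalisation to negative and positive control wells, and each value comes from one representative of two experiments.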

HEK293sieSTAT3(Y640F) [2] = test: as above; conditions: 72 h; STAT3 variant: Y640F (constitutively active)
How it was run: as §1

HEK293sieSTAT3(wt) [3] = test: drug sensitivity score (DSS), cytotoxicity CellTox Green (DSS (dimensionless)); higher = more cytotoxic; extreme values may be limits of the assay; conditions: 72 h; STAT3 variant: wild type
How it was run: as §1

HEK293sieSTAT3(Y640F) [4] = test: as above; conditions: 72 h; STAT3 variant: Y640F (constitutively active)
How it was run: as §1

Row | SMILES | drug sensitivity score (HEK293sieSTAT3(wt) [1]) | drug sensitivity score (HEK293sieSTAT3(Y640F) [2]) | drug sensitivity score (HEK293sieSTAT3(wt) [3]) | drug sensitivity score (HEK293sieSTAT3(Y640F) [4])
1 | COc1ncc(-c2ccc3nccc(-c4ccnnc4)c3c2)cc1NS(=O)(=O)c1ccc(F)cc1F [Omipalisib] (top concentration tested 1000 nM) | 22.1 | 18.3 | 6.37 | 0
2 | N#CCNC(=O)c1ccc(-c2ccnc(Nc3ccc(N4CCOCC4)cc3)n2)cc1 [Momelotinib] (top concentration tested 10000 nM) | 5.53 | 7.37 | 5.09 | 3.84
3 | CCCCC(=O)OCC(=O)[C@]1(O)Cc2c(O)c3c(c(O)c2[C@@H](O[C@H]2C[C@H](NC(=O)C(F)(F)F)[C@H](O)[C@H](C)O2)C1)C(=O)c1c(OC)cccc1C3=O [Valrubicin] (top concentration tested 5000 nM) | 22.8 | 21.9 | 0.89 | 0
4 | O=C(NC[C@H](O)CO)c1ccncc1Nc1ccc(I)cc1F [Pimasertib] (top concentration tested 10000 nM) | 0 | 0.57 | 0 | 0
5 | Cc1ccc(NC(=O)c2ccc(CN3CC[C@H](N(C)C)C3)c(C(F)(F)F)c2)cc1Nc1nccc(-c2cncnc2)n1 [Bafetinib] (top concentration tested 1000 nM) | 2.29 | 1.34 | 0 | 0
6 | CCN(CC)Cc1ccc2cc(COC(=O)Nc3ccc(C(=O)NO)cc3)ccc2c1 [Givinostat] (top concentration tested 1000 nM) | 11.6 | 10.8 | 6.08 | 4.23
7 | O=C(NC[C@H](O)CN1CCc2ccccc2C1)c1cc(NC2COC2)ncn1 (top concentration tested 10000 nM) | 0 | 0 | 0 | 0
8 | N[C@@H]1CCCN(c2c(/C=C3\SC(=O)NC3=O)cccc2-c2ccccc2)C1 [AZD1208] (top concentration tested 10000 nM) | 0 | 0 | 0 | 0
9 | Cc1cnc(-c2ccccc2C(C)C)nc1NCc1ccc(-n2ccnn2)cc1 [ML323] (top concentration tested 10000 nM) | 1.14 | 2.43 | 0 | 0
10 | Cc1cc(C)c(CNC(=O)c2cc(-c3ccc(CN4CCOCC4)cc3)cc3c2cnn3C2CCCC2)c(=O)[nH]1 [EPZ-5687] (top concentration tested 10000 nM) | 0 | 0 | 0 | 0
11 | Cn1cc(C[C@@H](N)C(=O)O)c2ccccc21 [1-methyl-D-tryptophan] (top concentration tested 5000 nM) | 0 | 0 | 0 | 0
12 | CN1CCN(c2cc(C(=O)Nc3ccc4c(c3)-c3c(c(C(N)=O)nn3-c3ccc(F)cc3)CC4)c(Cl)cn2)CC1 [PHA 408] (top concentration tested 10000 nM) | 8.88 | 9.12 | 8.63 | 5.61
13 | CCCCC/C=C/C=C1/C(=O)C=C[C@@H]1C/C=C\CCCC(=O)O [15D-PGJ2] (top concentration tested 3000 nM) | 0 | 1.33 | 0 | 0
14 | C[C@]12O[C@H](C[C@]1(O)CO)n1c3ccccc3c3c4c(c5c6ccccc6n2c5c31)CNC4=O [Lestaurtinib] (top concentration tested 1000 nM) | 8.27 | 9.27 | 4.55 | 7.22
15 | CCc1c(C(=O)C(N)=O)c2c(OCC(=O)O)cccc2n1Cc1ccccc1 [Varespladib] (top concentration tested 10000 nM) | 0 | 3.29 | 0 | 0
16 | CNc1nc(-c2ccc3c(N)n[nH]c3c2)cc(N2C[C@@H](C(=O)NC3CCCCC3)CC[C@H]2C)n1 (top concentration tested 10000 nM) | 4.33 | 1.37 | 0 | 0.35
17 | C=CC(=O)N1CCC(Oc2cc3c(Nc4ccc(Cl)c(Cl)c4F)ncnc3cc2OC)CC1 [Poziotinib] (top concentration tested 1000 nM) | 0 | 1.53 | 0 | 0
18 | CN1CCC(COc2cnc(-c3cccc(Cn4nc(-c5cccc(C#N)c5)ccc4=O)c3)nc2)CC1 (top concentration tested 1000 nM) | 0 | 0 | 0 | 0
19 | Nc1ncnc2c1c(COc1cccc(Cl)c1)nn2C1CCOCC1 (top concentration tested 10000 nM) | 0.14 | 0 | 0 | 0
20 | Nc1cccc2c1C(=O)N(C1CCC(=O)NC1=O)C2=O (stereo not given) [Pomalidomide] (top concentration tested 10000 nM) | 0 | 0 | 0 | 0
21 | Cn1cnc2c(F)c(Nc3ccc(Br)cc3Cl)c(C(=O)NOCCO)cc21 [Selumetinib] (top concentration tested 10000 nM) | 0.99 | 1.4 | 0 | 0.68
22 | COc1ccc(-c2cc3c(C)nc(N)nc3n([C@H]3CC[C@H](OCCO)CC3)c2=O)cn1 (top concentration tested 10000 nM) | 23.3 | 20.1 | 2.91 | 0
23 | Nc1nc(N)c2nc(-c3cccc(O)c3)c(-c3cccc(O)c3)nc2n1 [TG100-115] (top concentration tested 10000 nM) | 0 | 0.15 | 0 | 0

Row | SMILES | drug sensitivity score (HEK293sieSTAT3(wt) [1]) | drug sensitivity score (HEK293sieSTAT3(Y640F) [2]) | drug sensitivity score (HEK293sieSTAT3(wt) [3]) | drug sensitivity score (HEK293sieSTAT3(Y640F) [4])
24 | COc1cc2c(NC3CCN(C(C)C)CC3)nc(C3CCCCC3)nc2cc1OCCCN1CCCC1 [UNC0638] (top concentration tested 10000 nM) | 7.26 | 5.62 | 7.19 | 6.64
25 | CCS(=O)(=O)N1CCN(c2ccc(Nc3ncc(C(N)=O)c(NC4CC4)n3)cc2)CC1 [Cerdulatinib] (top concentration tested 10000 nM) | 9.09 | 6.32 | 7.28 | 0.63
26 | COc1cc2c(N3CCN(C(=O)Nc4ccc(OC(C)C)cc4)CC3)ncnc2cc1OCCCN1CCCCC1 [Tandutinib] (top concentration tested 1000 nM) | 1.99 | 0.33 | 0 | 0
27 | Nc1cc(C(F)(F)F)c(-c2cc(N3CCOCC3)nc(N3CCOCC3)n2)cn1 [Buparlisib] (top concentration tested 10000 nM) | 12.3 | 10.5 | 4 | 0.73
28 | Nc1ccccc1NC(=O)c1ccc(CNc2nccc(-c3cccnc3)n2)cc1 [Mocetinostat] (top concentration tested 10000 nM) | 13.1 | 11.5 | 6.57 | 2.68
29 | CN(C)C/C=C/C(=O)Nc1cc2c(Nc3ccc(F)c(Cl)c3)ncnc2cc1O[C@H]1CCOC1 [Afatinib] (top concentration tested 1000 nM) | 1.06 | 0.98 | 0 | 0
30 | CNC(=O)c1ccccc1Nc1cc(Nc2ccc(N3CCOCC3)cc2OC)ncc1C(F)(F)F [VS-4718] (top concentration tested 10000 nM) | 7.27 | 8.98 | 0.44 | 0
31 | Nc1cc(F)ccc1NC(=O)/C=C/c1cnn(C/C=C/c2ccccc2)c1 [RGFP966] (top concentration tested 10000 nM) | 6.28 | 5.46 | 0 | 0
32 | N#Cc1ccc(COC[C@H]2O[C@@H](n3c(NCc4ccc(Cl)c(Cl)c4)nc4c(N)ncnc43)[C@H](O)[C@@H]2O)cc1 (top concentration tested 10000 nM) | 3.11 | 4.87 | 0.11 | 0
33 | COc1cc2c(NC3CCN(C(C)C)CC3)nc(N3CCC(F)(F)CC3)nc2cc1OCCCN1CCCC1 [UNC0642] (top concentration tested 10000 nM) | 7.97 | 9.29 | 7.38 | 7.41
34 | CC(C)[C@H](C(=O)Nc1ccc(C(=O)NO)cc1)c1ccccc1 [AR-42] (top concentration tested 10000 nM) | 16.5 | 14.4 | 8.7 | 5.41
35 | NC(=O)c1cccc2cn(-c3ccc([C@@H]4CCCNC4)cc3)nc12 [Niraparib] (top concentration tested 10000 nM) | 13.3 | 8.57 | 9.84 | 1.69
36 | CCc1cncnc1N1CCN(Cc2nc3ccc(C(F)(F)F)cc3[nH]2)CC1 (top concentration tested 10000 nM) | 1.35 | 2.33 | 0.48 | 1.05
37 | CNC(=O)c1ccc(C)c(-n2c(C)cc(OCc3ccc(F)cc3F)c(Br)c2=O)c1 (top concentration tested 1000 nM) | 3.62 | 4.08 | 0 | 0
38 | CC1(C)CCC(CN2CCN(c3ccc(C(=O)NS(=O)(=O)c4ccc(NCC5CCOCC5)c([N+](=O)[O-])c4)c(Oc4cnc5[nH]ccc5c4)c3)CC2)=C(c2ccc(Cl)cc2)C1 [Venetoclax] (top concentration tested 1000 nM) | 0 | 0 | 0 | 0
39 | COc1ccc(CCc2nc3cc(-c4c(C)noc4C)ccc3n2C[C@H](C)N2CCOCC2)cc1Cl [SGC-CBP30] (top concentration tested 25000 nM) | 4.3 | 3.16 | 4.24 | 0.32
40 | C[C@]12CC[C@@H]3c4ccc(O)cc4C[C@@H](CCCCCCCCC[S+]([O-])CCCC(F)(F)C(F)(F)F)[C@H]3[C@@H]1CC[C@@H]2O (stereo not given in full) [Fulvestrant] (top concentration tested 1000 nM) | 1.8 | 1.69 | 0.46 | 0
41 | CC(C)(C)NC(=O)[C@H]1CC[C@H]2[C@@H]3CC[C@H]4NC(=O)C=C[C@]4(C)[C@H]3CC[C@]12C [Finasteride] (top concentration tested 10000 nM) | 1.63 | 3.82 | 1.18 | 0.18
42 | O=C(Nc1ccc(-c2ccnc(Nc3ccc(N4CCOCC4)cc3)n2)cc1)C1CCCN1 (stereo not given) [XL019] (top concentration tested 10000 nM) | 2.07 | 1.98 | 0 | 0
43 | Cc1ncc(-c2ccnc(Nc3ccc(S(C)(=O)=O)cc3)n2)n1C(C)C [AZD-5438] (top concentration tested 10000 nM) | 15.4 | 9.27 | 13.8 | 5.66
44 | Nc1nc(NC2CC2)cc(-c2cccc(Cl)c2Cl)n1 [TH588] (top concentration tested 25000 nM) | 6.38 | 3.43 | 5.04 | 2.04
45 | CO[C@@H](C(=O)N1Cc2[nH]nc(NC(=O)c3ccc(N4CCN(C)CC4)cc3)c2C1)c1ccccc1 [Danusertib] (top concentration tested 10000 nM) | 7.14 | 6.46 | 11.8 | 0
